Assay results taken from ChEMBL document CHEMBL3046649, “Fungitoxic and Phytotoxic Activities of Cinnamic Acid Esters and Amides” (2000).

Key:
Athelia rolfsii [1] = test: microbe, parasite or virus in culture; assay type: functional; conditions: Agroathelia rolfsii, read-out: GI
Description: Fungitoxic activity against Athelia rolfsii assessed as mycelial growth inhibition at 100 ppm after 4 to 5 days by agar dilution method

Athelia rolfsii [2] = test: Fungitoxic activity against Athelia rolfsii assessed as mycelial growth inhibition at 10 ppm after 4 to 5 days by agar dilution method; assay type: functional; conditions: Agroathelia rolfsii; read-out: GI
[3] = tested on: Brassica rapa subsp. chinensis; test: whole plant or invertebrate; assay type: functional; conditions: 72 h, read-out: GI
Description: Phytotoxicity against Brassica rapa subsp. chinensis assessed as growth inhibition of radicle at 100 ppm treated to seeds after 3 days

[4] = tested on: Brassica rapa subsp. chinensis; test: whole plant or invertebrate; assay type: functional; conditions: 72 h, read-out: GI; remark: listed apart in the source
Description: Phytotoxicity against Brassica rapa subsp. chinensis assessed as growth inhibition of hypocotyl at 100 ppm treated to seeds after 3 days

Pythium [5] = test: Fungitoxic activity against Pythium sp. assessed as mycelial growth inhibition at 10 ppm after 4 to 5 days by agar dilution method; conditions: read-out: GI
Pythium [6] = test: microbe, parasite or virus in culture; assay type: functional; conditions: read-out: GI
Description: Fungitoxic activity against Pythium sp. assessed as mycelial growth inhibition at 100 ppm after 4 to 5 days by agar dilution method

Compound	inhibition of growth at 100 ppm (Athelia rolfsii [1]) [%]	inhibition of growth at 10 ppm (Athelia rolfsii [2]) [%]	inhibition of growth at 100 ppm [3] [%]	inhibition of growth at 100 ppm [4] [%]	inhibition of growth at 10 ppm (Pythium [5]) [%]	inhibition of growth at 100 ppm (Pythium [6]) [%]
COC(=O)/C=C/c1ccc(C(C)C)cc1	97	35	21	38	7	82
CC(C)c1ccc(/C=C/C(=O)OCCOc2ccccc2)cc1	64	8	0	32	3	46
CC(C)=CCCC(C)CCOC(=O)/C=C/c1ccc(Cl)cc1 (stereo unspecified) [3,7-DIMETHYLOCT-6-ENYL 3-(4-CHLOROPHENYL)ACRYLATE]	83	19	15	26	8	64
CC(C)=CCCC(C)CCOC(=O)/C=C/c1ccc(C(C)C)cc1 (stereo unspecified) [3,7-DIMETHYLOCT-6-ENYL 3-(4-ISOPROPYLPHENYL)ACRYLATE]	87	9	0	39	12	69
CC(C)CNC(=O)/C=C/c1ccc(Cl)cc1 [3-(4-CHLOROPHENYL)-N-ISOBUTYLACRYLAMIDE]	89	33	69	43	50	73
CC(C)NC(=O)/C=C/c1ccc(Cl)cc1 [3-(4-CHLOROPHENYL)-N-ISOPROPYLACRYLAMIDE]	94	66	57	26	20	45
CCCNC(=O)/C=C/c1ccc(Cl)cc1 [3-(4-CHLOROPHENYL)-N-PROPYLACRYLAMIDE]	97	32	64	43	30	88
C=CCc1ccc(OC(=O)/C=C/c2ccc(Cl)cc2Cl)c(OC)c1 [4-ALLYL-2-METHOXYPHENYL 3-(2,4-DICHLOROPHENYL)ACRYLATE]	87	27	6	28	23	67
C=CCc1ccc(OC(=O)/C=C/c2ccc(Cl)cc2)c(OC)c1 [4-ALLYL-2-METHOXYPHENYL 3-(4-CHLOROPHENYL)ACRYLATE]	89	14	49	38	8	89
C=CCc1ccc(OC(=O)/C=C/c2ccc(C(C)C)cc2)c(OC)c1 [4-ALLYL-2-METHOXYPHENYL 3-(4-ISOPROPYLPHENYL)ACRYLATE]	86	8	0	40	8	62
CCOC(=O)/C=C/c1ccc(Cl)cc1Cl [ETHYL 3-(2,4-DICHLOROPHENYL)ACRYLATE]	93	32	29	54	19	76
CCOC(=O)/C=C/c1ccc(Cl)cc1 [ETHYL 3-(4-CHLOROPHENYL)ACRYLATE]	97	19	47	43	8	99
CCOC(=O)/C=C/c1ccc(C(C)C)cc1 [ETHYL 3-(4-ISOPROPYLPHENYL)ACRYLATE]	78	24	0	44	14	92
CCOC(=O)/C=C/c1ccccc1 [ETHYL CINNAMATE]	63	36	0	26	14	57
CC(C)OC(=O)/C=C/c1ccc(Cl)cc1Cl [ISOPROPYL 3-(2,4-DICHLOROPHENYL)ACRYLATE]	93	50	54	42	20	71
CC(C)OC(=O)/C=C/c1ccc(Cl)cc1 [ISOPROPYL 3-(4-CHLOROPHENYL)ACRYLATE]	99	34	0	18	7	86

Compound	inhibition of growth at 100 ppm (Athelia rolfsii [1]) [%]	inhibition of growth at 10 ppm (Athelia rolfsii [2]) [%]	inhibition of growth at 100 ppm [3] [%]	inhibition of growth at 100 ppm [4] [%]	inhibition of growth at 10 ppm (Pythium [5]) [%]	inhibition of growth at 100 ppm (Pythium [6]) [%]
CC(C)OC(=O)/C=C/c1ccc(C(C)C)cc1 [ISOPROPYL 3-(4-ISOPROPYLPHENYL)ACRYLATE]	92	42	0	18	21	70
CC(C)OC(=O)/C=C/c1ccccc1 [ISOPROPYL CINNAMATE]	86	41	2	2	5	82
COC(=O)/C=C/c1ccc(Cl)cc1Cl [METHYL 3-(2,4-DICHLOROPHENYL)ACRYLATE]	75	43	84	66	39	68
COC(=O)/C=C/c1ccc(Cl)cc1 [METHYL 3-(4-CHLOROPHENYL)ACRYLATE]	94	52	93	84	19	99
CCCCNC(=O)/C=C/c1ccc(Cl)cc1 [N-BUTYL-3-(4-CHLOROPHENYL)ACRYLAMIDE]	93	58	62	44	45	80
CCCCNC(=O)/C=C/c1ccc(C(C)C)cc1 [N-BUTYL-3-(4-ISOPROPYLPHENYL)ACRYLAMIDE]	92	28	51	41	37	90
CCCCNC(=O)/C=C/c1ccccc1 [N-BUTYLCINNAMAMIDE]	94	45	71	50	33	84
CCCCCCNC(=O)/C=C/c1ccccc1 [N-HEXYLCINNAMAMIDE]	91	32	82	55	14	87
CC(C)CNC(=O)/C=C/c1ccc(C(C)C)cc1 [N-ISOBUTYL-3-(4-ISOPROPYLPHENYL)ACRYLAMIDE]	42	37	45	34	42	58
CC(C)CNC(=O)/C=C/c1ccccc1 [N-ISOBUTYLCINNAMAMIDE]	82	29	78	34	23	74
CC(C)NC(=O)/C=C/c1ccc(C(C)C)cc1 [N-ISOPROPYL-3-(4-ISOPROPYLPHENYL)ACRYLAMIDE]	80	40	62	50	40	62
CC(C)NC(=O)/C=C/c1ccccc1 [N-ISOPROPYLCINNAMAMIDE]	96	17	76	39	0	47
Cc1cccc(NC(=O)/C=C/c2ccccc2)c1 [N-M-TOLYLCINNAMAMIDE]	83	34	59	13	52	85
CCCNC(=O)/C=C/c1ccccc1 [N-PROPYLCINNAMAMIDE]	89	26	63	15	17	54
CCC(C)NC(=O)/C=C/c1ccc(Cl)cc1 (stereo unspecified) [N-SEC-BUTYL-3-(4-CHLOROPHENYL)ACRYLAMIDE]	88	44	61	40	41	43
